Experimental data: article PMC11921695 (BMC Cancer, 2025)

Test system: patients with HIV-associated KS

Structure (SMILES): Cn1cnc2c(F)c(Nc3ccc(Br)cc3Cl)c(C(=O)NOCCO)cc21 [selumetinib, 6-(4-Bromo-2-chloro-phenylamino)-7-fluro-3-methyl-3 H-benzoimidazole-5-carboxylic acid (2-hydroxy-ethoxy)-amide hydrogen sulphate]
- Blood and lymphatic system disorders: Adverse Events Grade3 N (N = patients, any dose): 0
- Blood and lymphatic system disorders: Adverse Reactions Grade 1 N (N = patients, any dose): 3
- Blood and lymphatic system disorders: Adverse Reactions Grade 2 N (N = patients, any dose): 1
- Blood and lymphatic system disorders: Adverse Reactions Grade 3 N (N = patients, any dose): 0
- Cardiac disorders: Adverse Events Grade 1 N (N = patients, any dose): 1
- Cardiac disorders: Adverse Events Grade 2 N (N = patients, any dose): 0
- Cardiac disorders: Adverse Events Grade3 N (N = patients, any dose): 0
- Cardiac disorders: Adverse Reactions Grade 1 N (N = patients, any dose): 0
- Cardiac disorders: Adverse Reactions Grade 2 N (N = patients, any dose): 0
- Cardiac disorders: Adverse Reactions Grade 3 N (N = patients, any dose): 0
- Eye disorders: Adverse Events Grade 1 N (N = patients, any dose): 6
- Eye disorders: Adverse Events Grade 2 N (N = patients, any dose): 3
- Eye disorders: Adverse Events Grade3 N (N = patients, any dose): 0
- Eye disorders: Adverse Reactions Grade 1 N (N = patients, any dose): 5
- Eye disorders: Adverse Reactions Grade 2 N (N = patients, any dose): 3
- Eye disorders: Adverse Reactions Grade 3 N (N = patients, any dose): 0
- Gastrointestinal disorders: Adverse Events Grade 1 N (N = patients, any dose): 12
- Gastrointestinal disorders: Adverse Events Grade 2 N (N = patients, any dose): 7
- Gastrointestinal disorders: Adverse Events Grade3 N (N = patients, any dose): 0
- Gastrointestinal disorders: Adverse Reactions Grade 1 N (N = patients, any dose): 12
- Gastrointestinal disorders: Adverse Reactions Grade 2 N (N = patients, any dose): 6
- Gastrointestinal disorders: Adverse Reactions Grade 3 N (N = patients, any dose): 0
- General disorders and administration site conditions: Adverse Events Grade 1 N (N = patients, any dose): 11
- General disorders and administration site conditions: Adverse Events Grade 2 N (N = patients, any dose): 5
- General disorders and administration site conditions: Adverse Events Grade3 N (N = patients, any dose): 1
- General disorders and administration site conditions: Adverse Reactions Grade 1 N (N = patients, any dose): 10
- General disorders and administration site conditions: Adverse Reactions Grade 2 N (N = patients, any dose): 2
- General disorders and administration site conditions: Adverse Reactions Grade 3 N (N = patients, any dose): 0
- Infections and infestations: Adverse Events Grade 1 N (N = patients, any dose): 2
- Infections and infestations: Adverse Events Grade 2 N (N = patients, any dose): 4
- Infections and infestations: Adverse Events Grade3 N (N = patients, any dose): 0
- Infections and infestations: Adverse Reactions Grade 1 N (N = patients, any dose): 1
- Infections and infestations: Adverse Reactions Grade 2 N (N = patients, any dose): 3
- Infections and infestations: Adverse Reactions Grade 3 N (N = patients, any dose): 0
- Injury, poisoning and procedural complications: Adverse Events Grade 1 N (N = patients, any dose): 2
- Injury, poisoning and procedural complications: Adverse Events Grade 2 N (N = patients, any dose): 1
- Injury, poisoning and procedural complications: Adverse Events Grade3 N (N = patients, any dose): 0
- Injury, poisoning and procedural complications: Adverse Reactions Grade 1 N (N = patients, any dose): 0
- Injury, poisoning and procedural complications: Adverse Reactions Grade 2 N (N = patients, any dose): 0
- Injury, poisoning and procedural complications: Adverse Reactions Grade 3 N (N = patients, any dose): 0
- Investigations: Adverse Events Grade 1 N (N = patients, any dose): 15
- Investigations: Adverse Events Grade 2 N (N = patients, any dose): 4
- Investigations: Adverse Events Grade3 N (N = patients, any dose): 2
- Investigations: Adverse Reactions Grade 1 N (N = patients, any dose): 14
- Investigations: Adverse Reactions Grade 2 N (N = patients, any dose): 3
- Investigations: Adverse Reactions Grade 3 N (N = patients, any dose): 0
- Metabolism and nutrition disorders: Adverse Events Grade 1 N (N = patients, any dose): 5
- Metabolism and nutrition disorders: Adverse Events Grade 2 N (N = patients, any dose): 0
- Metabolism and nutrition disorders: Adverse Events Grade3 N (N = patients, any dose): 0
- Metabolism and nutrition disorders: Adverse Reactions Grade 1 N (N = patients, any dose): 5
- Metabolism and nutrition disorders: Adverse Reactions Grade 2 N (N = patients, any dose): 0
- Metabolism and nutrition disorders: Adverse Reactions Grade 3 N (N = patients, any dose): 0
- Musculoskeletal and connective tissue disorders: Adverse Events Grade 1 N (N = patients, any dose): 4
- Musculoskeletal and connective tissue disorders: Adverse Events Grade 2 N (N = patients, any dose): 0
- Musculoskeletal and connective tissue disorders: Adverse Events Grade3 N (N = patients, any dose): 0
- Musculoskeletal and connective tissue disorders: Adverse Reactions Grade 1 N (N = patients, any dose): 2
- Musculoskeletal and connective tissue disorders: Adverse Reactions Grade 2 N (N = patients, any dose): 0
- Musculoskeletal and connective tissue disorders: Adverse Reactions Grade 3 N (N = patients, any dose): 0
- Nervous system disorders: Adverse Events Grade 1 N (N = patients, any dose): 4
- Nervous system disorders: Adverse Events Grade 2 N (N = patients, any dose): 0
- Nervous system disorders: Adverse Events Grade3 N (N = patients, any dose): 0
- Nervous system disorders: Adverse Reactions Grade 1 N (N = patients, any dose): 4
- Nervous system disorders: Adverse Reactions Grade 2 N (N = patients, any dose): 0
- Nervous system disorders: Adverse Reactions Grade 3 N (N = patients, any dose): 0
- Psychiatric disorders: Adverse Events Grade 1 N (N = patients, any dose): 3
- Psychiatric disorders: Adverse Events Grade 2 N (N = patients, any dose): 0
- Psychiatric disorders: Adverse Events Grade3 N (N = patients, any dose): 0
- Psychiatric disorders: Adverse Reactions Grade 1 N (N = patients, any dose): 3
- Psychiatric disorders: Adverse Reactions Grade 2 N (N = patients, any dose): 0
- Psychiatric disorders: Adverse Reactions Grade 3 N (N = patients, any dose): 0
- Renal and urinary disorders: Adverse Events Grade 1 N (N = patients, any dose): 2
- Renal and urinary disorders: Adverse Events Grade 2 N (N = patients, any dose): 0
- Renal and urinary disorders: Adverse Events Grade3 N (N = patients, any dose): 0
- Renal and urinary disorders: Adverse Reactions Grade 1 N (N = patients, any dose): 1
- Renal and urinary disorders: Adverse Reactions Grade 2 N (N = patients, any dose): 0
- Renal and urinary disorders: Adverse Reactions Grade 3 N (N = patients, any dose): 0
- Respiratory, thoracic and mediastinal disorders: Adverse Events Grade 1 N (N = patients, any dose): 4
- Respiratory, thoracic and mediastinal disorders: Adverse Events Grade 2 N (N = patients, any dose): 1
- Respiratory, thoracic and mediastinal disorders: Adverse Events Grade3 N (N = patients, any dose): 0
- Respiratory, thoracic and mediastinal disorders: Adverse Reactions Grade 1 N (N = patients, any dose): 4
- Respiratory, thoracic and mediastinal disorders: Adverse Reactions Grade 2 N (N = patients, any dose): 1
- Respiratory, thoracic and mediastinal disorders: Adverse Reactions Grade 3 N (N = patients, any dose): 0
- Skin and subcutaneous tissue disorders: Adverse Events Grade 1 N (N = patients, any dose): 10
- Skin and subcutaneous tissue disorders: Adverse Events Grade 2 N (N = patients, any dose): 9
- Skin and subcutaneous tissue disorders: Adverse Events Grade3 N (N = patients, any dose): 3
- Skin and subcutaneous tissue disorders: Adverse Reactions Grade 1 N (N = patients, any dose): 10
- Skin and subcutaneous tissue disorders: Adverse Reactions Grade 2 N (N = patients, any dose): 9
- Skin and subcutaneous tissue disorders: Adverse Reactions Grade 3 N (N = patients, any dose): 3
- Vascular disorders: Adverse Events Grade 1 N (N = patients, any dose): 2
- Vascular disorders: Adverse Events Grade 2 N (N = patients, any dose): 0
- Vascular disorders: Adverse Events Grade3 N (N = patients, any dose): 0
- Vascular disorders: Adverse Reactions Grade 1 N (N = patients, any dose): 0
- Vascular disorders: Adverse Reactions Grade 2 N (N = patients, any dose): 0
- Vascular disorders: Adverse Reactions Grade 3 N (N = patients, any dose): 0
- further AEs reported (human, in vivo): 366
- ALT Increased: Number of patients experiencing at least one grade <2AE (n (%) of 16 patients): 5 (31%)
- AST Increased: Number of patients experiencing at least one grade <2AE (n (%) of 16 patients): 7 (44%)
- Albumin Decreased: Number of patients experiencing at least one grade <2AE (n (%) of 16 patients): 3 (19%)
- CPK Increased: Number of patients experiencing at least one grade <2AE (n (%) of 16 patients): 9 (56%)
- Fatigue: Number of patients experiencing at least one grade <2AE (n (%) of 16 patients): 9 (56%)
- Nausea: Number of patients experiencing at least one grade <2AE (n (%) of 16 patients): 7 (44%)
- Red Blood Cell Count Decreased: Number of patients experiencing at least one grade <2AE (n (%) of 16 patients): 7 (44%)
- Vomiting: Number of patients experiencing at least one grade <2AE (n (%) of 16 patients): 3 (19%)
- serious adverse event (SAE), unrelated to study treatment (number): one
- serious adverse reactions (SARs) (number): two
- AEs graded 1 or 2 (number of events): 360
- grade 3 AEs (non-serious) (number of events, in five separate patients): six
- AEs categorised as grade 1 or 2 (of the further 366 AEs): 98%
- AEs deemed as ARs (of the further 366 AEs): 69%
